Test results reported in US20040186089A1 (priority 2001, published 2004).
In brackets after ≈: the same amount, converted by molar mass. Several values for one entry are separate records, joined by “and”; a condition that tells them apart may be missing. Equal entries are not always repeated.

What was measured:
[1] = tested on: Bacillus anthracis ATCC 14578; assay type: cell-based; details: for MIC: unit assumed
Bacillus anthracis [2] = details: in vivo; cited from earlier work
Bacillus thuringiensis [3] = details: cited from earlier work
Bacillus cereus = assay type: cell-based
Bacillus thuringiensis [4] = assay type: cell-based
Bacillus anthracis [5] = details: cited from earlier work

Molecule: CO[C@@]1(NC(=O)Cc2cccs2)C(=O)N2C(C(=O)O)=C(COC(N)=O)CS[C@@H]21 [Cefoxitin]
- MIC [1]: 6 µg/mL (≈ 14 µM)

Molecule: O=C(O)c1cn(C2CC2)c2cc(N3CCNCC3)c(F)cc2c1=O [Ciprofloxacin]
- MIC [1]: 0.064 µg/mL (≈ 0.193 µM)
- response of people (Bacillus anthracis [2]): responded well
- resistance of Bacillus thuringiensis (Bacillus thuringiensis [3]): not resistant

Molecule: C[C@@H](O)[C@H]1C(=O)N2C(C(=O)O)=C(S[C@@H]3CN[C@H](C(=O)Nc4cccc(C(=O)O)c4)C3)[C@H](C)[C@H]12 [Ertapenem, (1R,5S,6S,8R,2′S,4′S)-2-(2-(3-carboxyphenylcarbamoyl)pyrrolidin-4-ylthio)-6-(1-hydroxyethyl)-1-methylcarbapenem-3-carboxylic acid]
- susceptibility of Bacillus anthracis [1]: susceptible
- MIC [1]: 0.032 µg/mL (≈ 0.0673 µM)

Molecule: C[C@@H](O)[C@H]1C(=O)N2C(C(=O)O)=C(SCCN=CN)C[C@H]12 [Imipenem, [5R-[5α,6α(R*)]]-6-(1-hydroxyethyl)-3-[[2-[(iminomethyl)amino]ethyl]thio]-7-oxo-1-azabicyclo[3.2.0]hept-2-ene-2-carboxylic acid monohydrate]
- MIC [1]: 0.047 µg/mL

Molecule: CCn1cc(C(=O)O)c(=O)c2cc(F)c(N3CCNCC3)cc21 [Norfloxacin]
- Disk Diffusion zone (Bacillus cereus): 22 mm and 23 mm and 21 mm and 25 mm
- Disk Diffusion zone (Bacillus thuringiensis [4]): 27 mm and 24 mm

Molecule: CN(C)[C@@H]1C(O)=C(C(N)=O)C(=O)[C@@]2(O)C(O)=C3C(=O)c4c(O)cccc4[C@@](C)(O)[C@H]3C[C@@H]12 [Tetracycline]
- MIC [1]: 0.064 µg/mL (≈ 0.144 µM)

Molecule: CC1(C)S[C@@H]2[C@H](NC(=O)[C@H](N)c3ccccc3)C(=O)N2[C@H]1C(=O)O [ampicillin]
- resistance of Bacillus thuringiensis (Bacillus thuringiensis [3]): resistant

Molecule: O=C(N[C@H](CO)[C@H](O)c1ccc([N+](=O)[O-])cc1)C(Cl)Cl [chloramphenicol]
- susceptibility of Bacillus anthracis (Bacillus anthracis [5]): susceptible

Molecule: CC[C@H]1OC(=O)[C@H](C)[C@@H](O[C@H]2C[C@@](C)(OC)[C@@H](O)[C@H](C)O2)[C@H](C)[C@@H](O[C@@H]2O[C@H](C)C[C@H](N(C)C)[C@H]2O)[C@](C)(O)C[C@@H](C)C(=O)[C@H](C)[C@@H](O)[C@]1(C)O [erythromycin]
- susceptibility of Bacillus anthracis (Bacillus anthracis [5]): susceptible

Molecule: Penicillin
- MIC [1]: 0.047 µg/mL
- susceptibility of Bacillus anthracis (Bacillus anthracis [5]): susceptible
- resistance of Bacillus thuringiensis (Bacillus thuringiensis [3]): resistant

Molecule: gentamicin
- susceptibility of Bacillus anthracis (Bacillus anthracis [5]): susceptible
